Tests used:
[1] = tested on: EGFR^del19+T790M+C797S; assay: EGFR protein degradation test (Western blot) in Ba/F3 cells expressing mutant EGFR del19+T790M+C797S (DTC); format: cell-based; settings: compounds at 0.1 μM and 1 μM, 24 hours, Western blot with EGFR antibody
Method: (§1) The ability of the compounds of the present invention to degrade the mutant EGFR protein was confirmed in Ba/F3 cells expressing normal EGFR, mutant EGFR^del19+T790M+C797S or mutant EGFR^L858R+T790M+C797S. A Western blot test using the EGFR antibody was performed.
(§2) Specifically, Ba/F3 cells expressing EGFR were cultured in RPMI 1640 (Gibco, NY, USA) containing 10% fetal bovine serum (FBS, Gibco, NY, USA). Cells expressing normal EGFR, mutant EGFR^del19+T790M+C797S or mutant EGFR^L858R+T790M+C797S were treated with the compounds of the present invention at concentrations of 0.1 μM and 1 μM, respectively, for 24 hours. After that, it was washed twice with phosphate buffered saline (PBS) and SDS-PAGE was performed with 30 μg of cell lysate. After the protein separated on the gel was transferred to a nitrocellulose membrane, the expression level of the EGFR protein was confirmed using an EGFR antibody (Santa Cruz biotechnology, Santacruz, CA, USA). EGFR bands separated by Western blotting were quantitatively analyzed with Fluo-S MultiImager (Bio-Rad, Hercules, CA, USA).

[2] = target: T1, EGFR^L858R+T790M+C797S (Homo sapiens, UniProt P00533, C797S/L858R/T790M); assay: EGFR protein degradation test (Western blot) in Ba/F3 cells expressing mutant EGFR L858R+T790M+C797S (LTC); format: cell-based; settings: compounds at 0.1 μM and 1 μM, 24 hours, Western blot with EGFR antibody
T1 construct: expressed in transfected cells; host or cells: Ba/F3
Method: as §1, §2

T1 sequence (P00533 25-1210 T790M/C797S/L858R): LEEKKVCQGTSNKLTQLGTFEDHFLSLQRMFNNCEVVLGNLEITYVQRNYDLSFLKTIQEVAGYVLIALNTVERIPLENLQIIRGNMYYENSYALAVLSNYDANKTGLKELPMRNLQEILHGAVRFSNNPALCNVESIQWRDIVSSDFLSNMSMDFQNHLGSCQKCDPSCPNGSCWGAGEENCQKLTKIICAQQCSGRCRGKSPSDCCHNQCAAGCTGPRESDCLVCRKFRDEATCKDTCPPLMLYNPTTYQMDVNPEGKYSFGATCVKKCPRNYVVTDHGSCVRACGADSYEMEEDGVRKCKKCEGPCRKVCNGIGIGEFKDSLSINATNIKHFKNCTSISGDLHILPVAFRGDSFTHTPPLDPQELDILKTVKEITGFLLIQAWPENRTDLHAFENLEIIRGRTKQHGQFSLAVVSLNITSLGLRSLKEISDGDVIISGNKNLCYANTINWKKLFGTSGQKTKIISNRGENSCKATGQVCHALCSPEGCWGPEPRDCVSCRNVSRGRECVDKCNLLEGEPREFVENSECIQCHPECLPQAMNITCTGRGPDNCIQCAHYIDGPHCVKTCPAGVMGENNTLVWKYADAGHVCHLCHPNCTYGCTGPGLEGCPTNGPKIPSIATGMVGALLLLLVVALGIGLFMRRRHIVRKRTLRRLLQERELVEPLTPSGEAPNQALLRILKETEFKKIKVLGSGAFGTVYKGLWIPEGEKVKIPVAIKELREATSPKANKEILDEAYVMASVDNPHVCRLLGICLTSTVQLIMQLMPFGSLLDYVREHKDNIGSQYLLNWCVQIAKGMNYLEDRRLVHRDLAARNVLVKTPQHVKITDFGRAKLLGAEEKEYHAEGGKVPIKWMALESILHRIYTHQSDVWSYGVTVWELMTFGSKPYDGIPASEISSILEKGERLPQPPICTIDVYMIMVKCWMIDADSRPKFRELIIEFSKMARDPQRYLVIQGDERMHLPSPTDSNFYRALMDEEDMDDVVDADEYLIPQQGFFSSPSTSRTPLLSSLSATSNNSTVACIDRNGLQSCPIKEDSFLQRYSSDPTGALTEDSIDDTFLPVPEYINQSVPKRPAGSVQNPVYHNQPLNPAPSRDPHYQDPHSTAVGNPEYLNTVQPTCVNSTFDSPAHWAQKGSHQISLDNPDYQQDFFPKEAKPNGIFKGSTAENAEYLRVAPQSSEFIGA

SMILES	DTC (EGFR^del19+T790M+C797S) protein degradation [1]	LTC (EGFR^L858R+T790M+C797S) protein degradation [2]
COc1cc(N2CCN(CCOC3CN(c4ccc5c(c4)C(=O)N(C4CCC(=O)NC4=O)C5=O)C3)CC2)ccc1Nc1ncc(Cl)c(Nc2ccccc2N(C)S(C)(=O)=O)n1 (stereo not shown) [Compound 33, N-(2-((5-chloro-2-((4-(4-(2-((1-(2-(2,6-dioxopiperidin-3-yl)-1,3-dioxoisoindolin-5-yl)azetidin-3-yl)oxy)ethyl)piperazin-1-yl)-2-methoxyphenyl)amino)pyrimidin-4-yl)amino)phenyl)-N-methylmethanesulfonamide]	+ (Protein degradation 20~80%)	− (Protein degradation < 20%)
COc1cc(N2CCN(CCOC3CCN(c4ccc5c(c4)C(=O)N(C4CCC(=O)NC4=O)C5=O)CC3)CC2)ccc1Nc1ncc(Cl)c(Nc2ccccc2N(C)S(C)(=O)=O)n1 (stereo not shown) [Compound 34, N-(2-((5-chloro-2-((4-(4-(2-((1-(2-(2,6-dioxopiperidin-3-yl)-1,3-dioxoisoindolin-5-yl)piperidin-4-yl)oxy)ethyl)piperazin-1-yl)-2-methoxyphenyl)amino)pyrimidin-4-yl)amino)phenyl)-N-methylmethanesulfonamide]	− (Protein degradation < 20%)	− (Protein degradation < 20%)
COc1cc(N2CCC(CN3CC(C(=O)N[C@H](C(=O)N4C[C@H](O)C[C@H]4C(=O)NCc4ccc(-c5scnc5C)cc4)C(C)(C)C)C3)CC2)ccc1Nc1ncc(Cl)c(Nc2ccccc2N(C)S(C)(=O)=O)n1 [Compound 38, (2S,4R)-1-((S)-2-(1-((1-(4-((5-chloro-4-((2-(N-methylmethylsulfonamido)phenyl)amino)pyrimidin-2-yl)amino)-3-methoxyphenyl)piperidin-4-yl)methyl)azetidin-3-carboxamido)-3,3-dimethylbutanoyl)-4-hydroxy-N-(4-(4-methylthiazol-5-yl)benzyl)pyrrolidin-2-carboxamide]	− (Protein degradation < 20%)	− (Protein degradation < 20%)
CN(c1ccccc1Nc1nc(Nc2ccc(N3CCN(CCN4CC(Oc5cccc6c5CN(C5CCC(=O)NC5=O)C6=O)C4)CC3)c(F)c2)ncc1Cl)S(C)(=O)=O (stereo not shown) [Compound 39, N-(2-((5-chloro-2-((4-(4-(2-(3-((2-(2,6-dioxopiperidin-3-yl)-1-oxoisoindolin-4-yl)oxy)azetidin-1-yl)ethyl)piperazin-1-yl)-3-fluorophenyl)amino)pyrimidin-4-yl)amino)phenyl)-N-methylmethanesulfonamide]	+ (Protein degradation 20~80%)	+ (Protein degradation 20~80%)
CN(c1ccccc1Nc1nc(Nc2ccc(N3CCN(CCOC4CN(c5ccc6c(c5)C(=O)N(C5CCC(=O)NC5=O)C6=O)C4)CC3)c(F)c2)ncc1Cl)S(C)(=O)=O (stereo not shown) [Compound 40, N-(2-((5-chloro-2-((4-(4-(2-((1-(2-(2,6-dioxopiperidin-3-yl)-1,3-dioxoisoindolin-5-yl)azetidin-3-yl)oxy)ethyl)piperazin-1-yl)-3-fluorophenyl)amino)pyrimidin-4-yl)amino)phenyl)-N-methylmethanesulfonamide]	+ (Protein degradation 20~80%)	+ (Protein degradation 20~80%)
COc1cc(N2CCN(CC3CCN(Cc4ccc5c(c4)C(=O)N(C4CCC(=O)NC4=O)C5=O)CC3)CC2)ccc1Nc1ncc(Cl)c(Nc2ccccc2N(C)S(C)(=O)=O)n1 (stereo not shown) [Compound 41, N-(2-((5-chloro-2-((4-(4-((1-((2-(2,6-dioxopiperidin-3-yl)-1,3-dioxoisoindolin-5-yl)methyl)piperidin-4-yl)methyl)piperazin-1-yl)-2-methoxyphenyl)amino)pyrimidin-4-yl)amino)phenyl)-N-methylmethanesulfonamide]	− (Protein degradation < 20%)	− (Protein degradation < 20%)
CN(c1ccccc1Nc1nc(Nc2ccc(N3CCC(N4CCN(Cc5ccc6c(c5)C(=O)N(C5CCC(=O)NC5=O)C6=O)CC4)CC3)c(F)c2)ncc1Cl)S(C)(=O)=O (stereo not shown) [Compound 42, N-(2-((5-chloro-2-((4-(4-(4-((2-(2,6-dioxopiperidin-3-yl)-1,3-dioxoisoindolin-5-yl)methyl)piperazin-1-yl)piperidin-1-yl)-3-fluorophenyl)amino)pyrimidin-4-yl)amino)phenyl)-N-methylmethanesulfonamide]	+ (Protein degradation 20~80%)	− (Protein degradation < 20%)
COc1cc(N2CCC(N3CCN(C[C@@H]4CCCN4c4ccc5c(c4)C(=O)N(C4CCC(=O)NC4=O)C5=O)CC3)CC2)ccc1Nc1ncc(Cl)c(Nc2ccccc2N(C)S(C)(=O)=O)n1 (stereo partly drawn) [Compound 44, N-(2-((5-chloro-2-((4-(4-(4-(((2S)-1-(2-(2,6-dioxopiperidin-3-yl)-1,3-dioxoisoindolin-5-yl)pyrrolidin-2-yl)methyl)piperazin-1-yl)piperidin-1-yl)-2-methoxyphenyl)amino)pyrimidin-4-yl)amino)phenyl)-N-methylmethanesulfonamide]	− (Protein degradation < 20%)	+ (Protein degradation 20~80%)
CN(c1ccccc1Nc1nc(Nc2ccc(N3CCN(CC4CCN(CCOc5cccc6c5C(=O)N(C5CCC(=O)NC5=O)C6=O)CC4)CC3)c(F)c2)ncc1Cl)S(C)(=O)=O (stereo not shown) [Compound 46, N-(2-((5-chloro-2-((4-(4-((1-(2-((2-(2,6-dioxopiperidin-3-yl)-1,3-dioxoisoindolin-4-yl)oxy)ethyl)piperidin-4-yl)methyl)piperazin-1-yl)-3-fluorophenyl)amino)pyrimidin-4-yl)amino)phenyl)-N-methylmethanesulfonamide]	+ (Protein degradation 20~80%)	+ (Protein degradation 20~80%)
COc1cc(N2CCC(CN3CCC(C(=O)Nc4cccc5c4CN(C4CCC(=O)NC4=O)C5=O)CC3)CC2)ccc1Nc1ncc(Cl)c(Nc2ccccc2N(C)S(C)(=O)=O)n1 (stereo not shown) [Compound 49, 1-((1-(4-((5-chloro-4-((2-(N-methylmethylsulfonamido)phenyl)amino)pyrimidin-2-yl)amino)-3-methoxyphenyl)piperidin-4-yl)methyl)-N-(2-(2,6-dioxopiperidin-3-yl)-1-oxoisoindolin-4-yl)piperidin-4-carboxamide]	− (Protein degradation < 20%)	− (Protein degradation < 20%)
COc1cc(N2CCC3(CCN(CC(=O)Nc4cccc5c4CN(C4CCC(=O)NC4=O)C5=O)CC3)CC2)ccc1Nc1ncc(Cl)c(Nc2ccccc2N(C)S(C)(=O)=O)n1 (stereo not shown) [Compound 50, 2-(9-(4-((5-chloro-4-((2-(N-methylmethylsulfonamido)phenyl)amino)pyrimidin-2-yl)amino)-3-methoxyphenyl)-3,9-diazaspiro[5.5]undecan-3-yl)-N-(2-(2,6-dioxopiperidin-3-yl)-1-oxoisoindolin-4-yl)acetamide]	+ (Protein degradation 20~80%)	− (Protein degradation < 20%)
COc1cc(N2CCC(N3CCN(CCOc4cccc5c4C(=O)N(C4CCC(=O)NC4=O)C5=O)CC3)CC2)ccc1Nc1ncc(Cl)c(Nc2ccccc2N(C)S(C)(=O)=O)n1 (stereo not shown) [Compound 52, N-(2-((5-chloro-2-((4-(4-(4-(2-((2-(2,6-dioxopiperidin-3-yl)-1,3-dioxoisoindolin-4-yl)oxy)ethyl)piperazin-1-yl)piperidin-1-yl)-2-methoxyphenyl)amino)pyrimidin-4-yl)amino)phenyl)-N-methylmethanesulfonamide]	+ (Protein degradation 20~80%)	− (Protein degradation < 20%)
COc1cc(N2CCN(CC3CCN(CCOc4cccc5c4C(=O)N(C4CCC(=O)NC4=O)C5=O)CC3)CC2)ccc1Nc1ncc(Cl)c(Nc2ccccc2N(C)S(C)(=O)=O)n1 (stereo not shown) [Compound 57, N-(2-((5-chloro-2-((4-(4-((1-(2-((2-(2,6-dioxopiperidin-3-yl)-1,3-dioxoisoindolin-4-yl)oxy)ethyl)piperidin-4-yl)methyl)piperazin-1-yl)-2-methoxyphenyl)amino)pyrimidin-4-yl)amino)phenyl)-N-methylmethanesulfonamide]	− (Protein degradation < 20%)	− (Protein degradation < 20%)
COc1cc(N2CCC(N3CCN(CCNc4ccc5c(c4)C(=O)N(C4CCC(=O)NC4=O)C5=O)CC3)CC2)ccc1Nc1ncc(Cl)c(Nc2ccccc2N(C)S(C)(=O)=O)n1 (stereo not shown) [Compound 58, N-(2-((5-chloro-2-((4-(4-(4-(2-((2-(2,6-dioxopiperidin-3-yl)-1,3-dioxoisoindolin-5-yl)amino)ethyl)piperazin-1-yl)piperidin-1-yl)-2-methoxyphenyl)amino)pyrimidin-4-yl)amino)phenyl)-N-methylmethanesulfonamide]	− (Protein degradation < 20%)	+ (Protein degradation 20~80%)

Reference: patent US20230322723A1, “COMPOUNDS FOR SUPPRESSING EGFR MUTANT CANCER AND PHARMACEUTICAL USE THEREOF” (J2H BIOTECH INC., priority 2020, published 2023)
